Patent US9567336B2, “Conjugated TLR7 and/or TLR8 and TLR2 agonists” (CAYLA, priority 2012, dated 2017)

How the values were obtained:
human TLR7 = target: T1, human TLR7 (Homo sapiens, UniProt Q9NYK1); experiment: HEK-Blue hTLR7 NF-κB/AP-1 SEAP reporter cell assay; type: cell-based; settings: HEK-Blue hTLR7 reporter cells, 10 μg/mL to 10 pg/ml, 24 hours, OD at 655 nm; FIGS. 1A, 1B
T1 construct: host or cells: HEK293 (HEK-Blue hTLR7)
T1 sequence (Q9NYK1 27-1049): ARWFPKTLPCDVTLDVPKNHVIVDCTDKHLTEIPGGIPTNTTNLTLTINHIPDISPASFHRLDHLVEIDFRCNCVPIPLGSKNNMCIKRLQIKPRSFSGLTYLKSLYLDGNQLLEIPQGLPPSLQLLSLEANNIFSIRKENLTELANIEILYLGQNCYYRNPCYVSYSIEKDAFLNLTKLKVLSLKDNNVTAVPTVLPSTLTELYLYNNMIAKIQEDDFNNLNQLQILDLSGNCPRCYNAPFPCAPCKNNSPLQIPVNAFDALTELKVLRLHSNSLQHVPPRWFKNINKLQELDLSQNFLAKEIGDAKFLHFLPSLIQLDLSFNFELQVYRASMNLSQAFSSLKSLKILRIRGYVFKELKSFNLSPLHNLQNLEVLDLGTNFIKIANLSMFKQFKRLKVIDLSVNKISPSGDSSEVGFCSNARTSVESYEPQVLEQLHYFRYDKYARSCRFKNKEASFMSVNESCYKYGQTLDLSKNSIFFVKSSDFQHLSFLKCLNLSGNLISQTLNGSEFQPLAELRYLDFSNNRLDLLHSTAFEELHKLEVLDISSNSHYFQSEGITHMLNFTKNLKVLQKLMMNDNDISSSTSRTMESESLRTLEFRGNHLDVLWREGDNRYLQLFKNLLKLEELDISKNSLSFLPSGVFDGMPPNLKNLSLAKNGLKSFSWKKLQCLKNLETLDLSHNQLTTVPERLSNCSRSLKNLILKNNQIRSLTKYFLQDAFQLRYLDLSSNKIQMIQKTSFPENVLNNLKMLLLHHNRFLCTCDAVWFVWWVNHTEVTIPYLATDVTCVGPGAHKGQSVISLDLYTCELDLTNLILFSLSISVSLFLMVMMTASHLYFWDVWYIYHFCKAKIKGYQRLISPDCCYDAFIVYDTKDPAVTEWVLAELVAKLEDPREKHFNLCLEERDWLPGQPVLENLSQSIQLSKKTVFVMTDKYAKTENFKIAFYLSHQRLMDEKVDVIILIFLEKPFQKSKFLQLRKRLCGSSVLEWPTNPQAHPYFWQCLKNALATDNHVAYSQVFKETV
Procedure: (§1) Some conjugated compounds of the invention were tested for their ability to activate TLR7 and TLR2 receptor signaling. Cell-based assays were carried out using TLR7 and TLR2 reporter cell lines (InvivoGen). The reporter cell lines are engineered HEK293 cells, a human embryonic kidney cell line (ATCC, CRL-1573) that stably express either murine TLR7 (HEK-Blue™ mTLR7) or human TLR7 (HEK-Blue™ hTLR7) or murine TLR2 (HEK-Blue™ mTLR2) or human TLR2 (HEK-Blue™ hTLR2) with an NF-κB-inducible secreted embryonic alkaline phosphatase (SEAP) as the reporter gene. The SEAP reporter gene is placed under the control of the NF-κB and AP-inducible promoter. Stimulation with the corresponding TLR ligand activates NF-κB and AP-1, which induces the production of SEAP. Detection of SEAP is measured following culturing cells in HEK-Blue™ Detection media (InvivoGen). HEK-Blue™ Detection contains a SEAP substrate, which upon hydrolysis by SEAP produces a colorimetric change allowing for detection of SEAP as the protein is secreted. […] These assays were carried out using RAW-Blue™ Cells (InvivoGen), derived from RAW 264.7 mouse leukemic monocytic macrophage cell line (ATCC, CRL 2278) stably overexpressing a NF-κB/AP-1 inducible SEAP reporter constructs.
(§2) To perform the assay, cells were seeded on 96 well microliter plates at 50,000 or 100,000 cells per well for HEK-Blue™ Cells and RAW-Blue™ Cells respectively, and cultured at 37° C. in the presence of the conjugated compounds. The conjugated compounds were prepared as follows: First, stock solutions of the small molecule conjugated compounds of the invention were prepared in ethanol or water to a concentration of 10 mg/ml. A working dilution of the conjugated TLR7-TLR2 small molecules was made up in water and added to cells at a final range of concentrations from 10 μg/mL to 10 pg/ml. The working dilutions of the conjugated TLR7-TLR2 small molecules as the stated concentrations were directly added to the reporter cell lines and incubated at 37° C. for 24 hours. After 24 hours of incubation, the effect on reporter gene activity was determined by reading the OD at 655 nm using iMark™ Microplate Reader (BIO-RAD).
(§3) The conjugated compounds were tested alone for their ability to specifically activate TLR7 and TLR2, alongside the known TLR7 activators R848 or CL264 (InvivoGen) and the TLR2 agonists Pam2CSK4 or Pam3CSK4 (InvivoGen). The specificity of the TLR activity was determined by use of reporter cell lines to the other TLRs (data not shown). […] The molecules show a tendency to activate mouse TLR7 with greater sensitivity than human TLR7. […] Furthermore, dose-dependent responses of the conjugated compounds indicate significant TLR activities of TLR7 and TLR2 compared to the corresponding controls.

human TLR2 = target: T2, human TLR2 (Homo sapiens, UniProt O60603); experiment: HEK-Blue hTLR2 NF-κB/AP-1 SEAP reporter cell assay; type: cell-based; settings: HEK-Blue hTLR2 reporter cells, 10 μg/mL to 10 pg/ml, 24 hours, OD at 655 nm; FIGS. 3A, 3B
T2 construct: host or cells: HEK293 (HEK-Blue hTLR2)
Procedure: as §1, §2, §3

murine TLR7 = target: T3, murine TLR7 (Mus musculus, UniProt P58681); experiment: HEK-Blue mTLR7 NF-κB/AP-1 SEAP reporter cell assay; type: cell-based; settings: HEK-Blue mTLR7 reporter cells, 10 μg/mL to 10 pg/ml, 24 hours, OD at 655 nm; FIGS. 2A, 2B
T3 construct: host or cells: HEK293 (HEK-Blue mTLR7)
T3 sequence (P58681 27-1050): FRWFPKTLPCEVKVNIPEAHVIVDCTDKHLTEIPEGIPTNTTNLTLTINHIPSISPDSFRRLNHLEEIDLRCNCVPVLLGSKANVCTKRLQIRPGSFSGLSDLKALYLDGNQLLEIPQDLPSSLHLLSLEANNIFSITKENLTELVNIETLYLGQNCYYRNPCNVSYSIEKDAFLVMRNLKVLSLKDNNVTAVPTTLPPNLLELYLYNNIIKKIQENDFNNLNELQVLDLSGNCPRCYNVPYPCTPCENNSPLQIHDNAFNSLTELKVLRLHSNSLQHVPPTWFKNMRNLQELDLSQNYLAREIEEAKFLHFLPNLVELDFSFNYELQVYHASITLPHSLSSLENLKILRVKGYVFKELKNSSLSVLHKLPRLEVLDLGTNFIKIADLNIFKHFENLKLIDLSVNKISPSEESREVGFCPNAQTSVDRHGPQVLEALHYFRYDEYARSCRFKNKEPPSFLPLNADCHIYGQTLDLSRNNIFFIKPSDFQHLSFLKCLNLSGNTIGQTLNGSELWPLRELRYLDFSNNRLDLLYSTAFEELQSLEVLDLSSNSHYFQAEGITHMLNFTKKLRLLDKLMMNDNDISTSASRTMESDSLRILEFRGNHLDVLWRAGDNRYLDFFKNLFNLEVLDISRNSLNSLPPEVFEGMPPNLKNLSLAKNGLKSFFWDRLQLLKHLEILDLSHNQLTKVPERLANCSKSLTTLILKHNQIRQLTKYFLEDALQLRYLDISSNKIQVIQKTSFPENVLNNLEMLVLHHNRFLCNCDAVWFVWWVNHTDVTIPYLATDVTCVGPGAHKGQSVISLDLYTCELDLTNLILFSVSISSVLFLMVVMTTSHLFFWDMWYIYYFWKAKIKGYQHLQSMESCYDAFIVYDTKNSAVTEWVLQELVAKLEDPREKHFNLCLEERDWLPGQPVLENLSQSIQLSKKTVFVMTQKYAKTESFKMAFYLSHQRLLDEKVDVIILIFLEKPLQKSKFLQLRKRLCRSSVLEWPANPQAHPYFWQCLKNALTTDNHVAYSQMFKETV
Procedure: as §1, §2, §3

[1] = system: NF-κB in RAW-Blue™ Cells (RAW 264.7, endogenous TLR7 and TLR2); experiment: RAW-Blue Cells NF-κB/AP-1 inducible SEAP reporter assay; type: cell-based, mouse; settings: murine monocytic macrophage cell line RAW 264.7, 24 hours, OD at 655 nm; FIGS. 5A, 5B
Procedure: as §1, §2, §3

murine TLR2 = target: T4, murine TLR2 (Mus musculus, UniProt Q9QUN7); experiment: HEK-Blue mTLR2 NF-κB/AP-1 SEAP reporter cell assay; type: cell-based; settings: HEK-Blue mTLR2 reporter cells, 10 μg/mL to 10 pg/ml, 24 hours, OD at 655 nm; FIG. 4
T4 construct: host or cells: HEK293 (HEK-Blue mTLR2)
Procedure: as §1, §2, §3

T2 sequence (O60603 21-784): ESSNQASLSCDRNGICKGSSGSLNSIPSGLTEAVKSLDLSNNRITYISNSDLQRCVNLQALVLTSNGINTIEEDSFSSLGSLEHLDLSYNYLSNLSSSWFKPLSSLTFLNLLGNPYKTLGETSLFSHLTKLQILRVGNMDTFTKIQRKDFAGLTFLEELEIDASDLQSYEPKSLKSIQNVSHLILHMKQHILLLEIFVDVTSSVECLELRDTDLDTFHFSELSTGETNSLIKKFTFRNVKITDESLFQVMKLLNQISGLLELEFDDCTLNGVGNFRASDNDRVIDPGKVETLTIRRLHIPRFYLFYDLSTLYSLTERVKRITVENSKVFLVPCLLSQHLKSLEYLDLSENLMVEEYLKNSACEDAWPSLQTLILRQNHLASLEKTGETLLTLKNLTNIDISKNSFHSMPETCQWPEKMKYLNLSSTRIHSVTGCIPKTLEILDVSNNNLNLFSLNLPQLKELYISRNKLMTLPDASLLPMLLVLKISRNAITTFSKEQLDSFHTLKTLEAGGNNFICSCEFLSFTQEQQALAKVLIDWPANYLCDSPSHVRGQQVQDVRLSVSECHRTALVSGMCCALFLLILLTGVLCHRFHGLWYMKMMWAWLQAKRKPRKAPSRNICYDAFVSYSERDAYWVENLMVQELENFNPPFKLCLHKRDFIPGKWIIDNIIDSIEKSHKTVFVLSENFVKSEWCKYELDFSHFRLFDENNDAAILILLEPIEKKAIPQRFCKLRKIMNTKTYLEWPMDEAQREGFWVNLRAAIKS
T4 sequence (Q9QUN7 25-784): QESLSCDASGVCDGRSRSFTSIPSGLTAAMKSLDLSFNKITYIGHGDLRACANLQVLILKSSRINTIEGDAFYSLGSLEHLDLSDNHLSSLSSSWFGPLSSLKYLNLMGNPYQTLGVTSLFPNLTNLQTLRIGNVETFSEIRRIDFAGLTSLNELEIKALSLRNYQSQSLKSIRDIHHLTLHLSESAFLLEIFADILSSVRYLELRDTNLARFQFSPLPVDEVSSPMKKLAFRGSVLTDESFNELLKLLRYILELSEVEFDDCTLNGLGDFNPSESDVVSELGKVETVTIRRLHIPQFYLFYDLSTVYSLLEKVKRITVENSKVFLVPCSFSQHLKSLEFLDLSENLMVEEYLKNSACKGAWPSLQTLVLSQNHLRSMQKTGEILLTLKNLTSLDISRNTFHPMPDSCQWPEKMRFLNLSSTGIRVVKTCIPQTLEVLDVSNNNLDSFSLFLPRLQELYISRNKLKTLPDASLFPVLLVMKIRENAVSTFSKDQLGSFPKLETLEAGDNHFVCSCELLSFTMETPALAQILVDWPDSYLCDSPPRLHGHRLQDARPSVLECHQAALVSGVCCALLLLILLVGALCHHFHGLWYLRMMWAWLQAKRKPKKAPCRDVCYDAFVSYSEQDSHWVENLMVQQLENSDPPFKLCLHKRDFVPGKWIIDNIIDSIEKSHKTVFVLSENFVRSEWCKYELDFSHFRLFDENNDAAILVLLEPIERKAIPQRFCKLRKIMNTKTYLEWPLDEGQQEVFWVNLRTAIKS

SMILES | ability to activate TLR7 receptors (human TLR7) (human TLR7) | ability to activate TLR2 receptor (human TLR2) (human TLR2) | ability to activate TLR7 receptors (murine TLR7) (murine TLR7) | induction of NF-κB in RAW-Blue cells [1] | ability to activate TLR2 receptor (murine TLR2) (murine TLR2)
CCCCCCCCCCCCCC(=O)OCCSC[C@H](N)C(=O)N[C@@H](CO)C(=O)Nc1ccc(Cn2c(O)nc3c(N)nc(NCCCC)nc32)cc1 [CL558, 2-((R)-2-amino-3-((S)-1-(4-((6-amino-2-(butylamino)-8-hydroxy-9H-purin-9-yl)methyl)phenylamino)-3-hydroxy-1-oxopropan-2-ylamino)-3-oxopropylthio)ethyltetradecanoate] | activate TLR7 receptors | activate TLR2 receptor | activate TLR7 receptors | activate NF-κB | activate TLR2 receptor
CCCCCCCCCCCCCCCC(=O)OCCSC[C@H](N)C(=O)N[C@@H](CO)C(=O)Nc1ccc(Cn2c(O)nc3c(N)nc(NCCCC)nc32)cc1 [CL559, 2-((R)-2-amino-3-((S)-1-(4-((6-amino-2-(butylamino)-8-hydroxy-9H-purin-9-yl)methyl)phenylamino)-3-hydroxy-1-oxopropan-2-ylamino)-3-oxopropylthio)ethyl palmitate] | activate TLR7 receptors | activate TLR2 receptor | activate TLR7 receptors | activate NF-κB | activate TLR2 receptor
CCCCCCCCCCCCCCCCCC(=O)OCCSC[C@H](N)C(=O)Nc1ccc(Cn2c(O)nc3c(N)nc(NCCCC)nc32)cc1 [CL557, (R)-2-(2-amino-3-(4-((6-amino-2-(butylamino)-8-hydroxy-9H-purin-9-yl)methyl)phenylamino)-3-oxopropylthio)ethyl stearate] | activate TLR7 receptors | activate TLR2 receptor | activate TLR7 receptors | activate NF-κB | activate TLR2 receptor
